According to PubChem BioAssay (NCI):
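Method: 48-hour compound exposure of cells in 96-well plates, five concentrations, linear interpolation of endpoints. At the GI50, growth is halved. TGI is the concentration that stops growth completely.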

Tests used:
Experiment in all cases: inhibition of tumour cell growth, NCI panel, 48 h
BT-549 breast = system: BT-549 breast
UACC-257 melanoma = system: UACC-257 melanoma
OVCAR-4 ovarian = system: OVCAR-4 ovarian
MALME-3M melanoma = system: MALME-3M melanoma
HOP-92 NSCLC = system: HOP-92 NSCLC
DU-145 prostate = system: DU-145 prostate
A498 renal = system: A498 renal
ACHN renal = system: ACHN renal
HOP-62 NSCLC = system: HOP-62 NSCLC
HCT-116 colon = system: HCT-116 colon
UO-31 renal = system: UO-31 renal
MDA-MB-231 breast = system: MDA-MB-231 breast
IGROV1 ovarian = system: IGROV1 ovarian
RXF 393 renal = system: RXF 393 renal
SF-539 CNS = system: SF-539 CNS
HCT-15 colon = system: HCT-15 colon
SN12C renal = system: SN12C renal
PC-3 prostate = system: PC-3 prostate
CAKI-1 renal = system: CAKI-1 renal
KM12 colon = system: KM12 colon
TK-10 renal = system: TK-10 renal
SW-620 colon = system: SW-620 colon
SK-MEL-5 melanoma = system: SK-MEL-5 melanoma
SF-295 CNS = system: SF-295 CNS
HS 578T breast = system: HS 578T breast
CCRF-CEM leukemia = system: CCRF-CEM leukemia
EKVX NSCLC = system: EKVX NSCLC
NCI-H226 lung = system: NCI-H226 lung
T-47D breast = system: T-47D breast
OVCAR-8 ovarian = system: OVCAR-8 ovarian
MCF7 breast = system: MCF7 breast
M14 melanoma = system: M14 melanoma
SK-MEL-28 melanoma = system: SK-MEL-28 melanoma
SNB-75 CNS = system: SNB-75 CNS
HT29 colon = system: HT29 colon
U251 CNS = system: U251 CNS
MOLT-4 leukemia = system: MOLT-4 leukemia
SNB-19 CNS = system: SNB-19 CNS
MDA-MB-435 = system: MDA-MB-435
SF-268 CNS = system: SF-268 CNS
OVCAR-3 ovarian = system: OVCAR-3 ovarian
NCI-H460 lung = system: NCI-H460 lung
SR leukemia = system: SR leukemia
786-0 renal = system: 786-0 renal
NCI-H522 lung = system: NCI-H522 lung
SK-MEL-2 melanoma = system: SK-MEL-2 melanoma
SK-OV-3 ovarian = system: SK-OV-3 ovarian
NCI/ADR-RES ovarian = system: NCI/ADR-RES ovarian
HCC-2998 colon = system: HCC-2998 colon
RPMI-8226 leukemia = system: RPMI-8226 leukemia
K-562 leukemia = system: K-562 leukemia
UACC-62 melanoma = system: UACC-62 melanoma
NCI-H23 lung = system: NCI-H23 lung
COLO 205 colon = system: COLO 205 colon
A549 NSCLC = system: A549 NSCLC
HL-60(TB) leukemia = system: HL-60(TB) leukemia
LOX IMVI melanoma = system: LOX IMVI melanoma
OVCAR-5 ovarian = system: OVCAR-5 ovarian

CCCN(CCS(C)(=O)=O)Cc1ccc(-c2ccc3ncnc(Nc4ccc(OCc5cccc(F)c5)c(Cl)c4)c3c2)o1
GI50 (BT-549 breast): > 25 µM
TGI (BT-549 breast): > 25 µM
GI50 (UACC-257 melanoma): > 25 µM
TGI (UACC-257 melanoma): > 25 µM
GI50 (OVCAR-4 ovarian): 21.3 µM
TGI (OVCAR-4 ovarian): > 25 µM
GI50 (MALME-3M melanoma): > 25 µM
TGI (MALME-3M melanoma): > 25 µM
GI50 (HOP-92 NSCLC): > 25 µM
TGI (HOP-92 NSCLC): > 25 µM
GI50 (DU-145 prostate): > 22.4 µM
TGI (DU-145 prostate): > 25 µM
GI50 (A498 renal): > 13.6 µM
TGI (A498 renal): > 25 µM
GI50 (ACHN renal): 1.23 µM
TGI (ACHN renal): > 25 µM
GI50 (HOP-62 NSCLC): > 25 µM
TGI (HOP-62 NSCLC): > 25 µM
GI50 (HCT-116 colon): > 25 µM
TGI (HCT-116 colon): > 25 µM
GI50 (UO-31 renal): 5.12 µM
TGI (UO-31 renal): > 25 µM
GI50 (MDA-MB-231 breast): > 25 µM
TGI (MDA-MB-231 breast): > 25 µM
GI50 (IGROV1 ovarian): 16.5 µM
TGI (IGROV1 ovarian): > 25 µM
GI50 (RXF 393 renal): 24.9 µM
TGI (RXF 393 renal): > 25 µM
GI50 (SF-539 CNS): > 25 µM
TGI (SF-539 CNS): > 25 µM
GI50 (HCT-15 colon): > 25 µM
TGI (HCT-15 colon): > 25 µM
GI50 (SN12C renal): > 25 µM
TGI (SN12C renal): > 25 µM
GI50 (PC-3 prostate): > 25 µM
TGI (PC-3 prostate): > 25 µM
GI50 (CAKI-1 renal): 0.997 µM
TGI (CAKI-1 renal): > 25 µM
GI50 (KM12 colon): > 25 µM
TGI (KM12 colon): > 25 µM
GI50 (TK-10 renal): 0.175 µM
TGI (TK-10 renal): > 25 µM
GI50 (SW-620 colon): > 25 µM
TGI (SW-620 colon): > 25 µM
GI50 (SK-MEL-5 melanoma): > 14.1 µM
TGI (SK-MEL-5 melanoma): > 25 µM
GI50 (SF-295 CNS): > 25 µM
TGI (SF-295 CNS): > 25 µM
GI50 (HS 578T breast): > 25 µM
TGI (HS 578T breast): > 25 µM
GI50 (CCRF-CEM leukemia): 7.39 µM
TGI (CCRF-CEM leukemia): > 25 µM
GI50 (EKVX NSCLC): 0.195 µM
TGI (EKVX NSCLC): > 25 µM
GI50 (NCI-H226 lung): > 25 µM
TGI (NCI-H226 lung): > 25 µM
GI50 (T-47D breast): 1.82 µM
TGI (T-47D breast): 24.7 µM
GI50 (OVCAR-8 ovarian): > 25 µM
TGI (OVCAR-8 ovarian): > 25 µM
GI50 (MCF7 breast): > 20.2 µM
TGI (MCF7 breast): > 25 µM
GI50 (M14 melanoma): > 25 µM
TGI (M14 melanoma): > 25 µM
GI50 (SK-MEL-28 melanoma): > 25 µM
TGI (SK-MEL-28 melanoma): > 25 µM
GI50 (SNB-75 CNS): > 25 µM
TGI (SNB-75 CNS): > 25 µM
GI50 (HT29 colon): > 25 µM
TGI (HT29 colon): > 25 µM
GI50 (U251 CNS): > 25 µM
TGI (U251 CNS): > 25 µM
GI50 (MOLT-4 leukemia): 7.31 µM
TGI (MOLT-4 leukemia): > 25 µM
GI50 (SNB-19 CNS): > 25 µM
TGI (SNB-19 CNS): > 25 µM
GI50 (MDA-MB-435): > 25 µM
TGI (MDA-MB-435): > 25 µM
GI50 (SF-268 CNS): > 25 µM
TGI (SF-268 CNS): > 25 µM
GI50 (OVCAR-3 ovarian): > 22.9 µM
TGI (OVCAR-3 ovarian): > 25 µM
GI50 (NCI-H460 lung): > 25 µM
TGI (NCI-H460 lung): > 25 µM
GI50 (SR leukemia): > 20.9 µM
TGI (SR leukemia): > 25 µM
GI50 (786-0 renal): > 25 µM
TGI (786-0 renal): > 25 µM
GI50 (NCI-H522 lung): 0.525 µM
TGI (NCI-H522 lung): > 25 µM
GI50 (SK-MEL-2 melanoma): > 25 µM
TGI (SK-MEL-2 melanoma): > 25 µM
GI50 (SK-OV-3 ovarian): 0.0197 µM
TGI (SK-OV-3 ovarian): 0.192 µM
GI50 (NCI/ADR-RES ovarian): 12 µM
TGI (NCI/ADR-RES ovarian): > 25 µM
GI50 (HCC-2998 colon): > 25 µM
TGI (HCC-2998 colon): > 25 µM
GI50 (RPMI-8226 leukemia): > 20.8 µM
TGI (RPMI-8226 leukemia): > 25 µM
GI50 (K-562 leukemia): 9.49 µM
TGI (K-562 leukemia): > 25 µM
GI50 (UACC-62 melanoma): > 25 µM
TGI (UACC-62 melanoma): > 25 µM
GI50 (NCI-H23 lung): > 25 µM
TGI (NCI-H23 lung): > 25 µM
GI50 (COLO 205 colon): > 25 µM
TGI (COLO 205 colon): > 25 µM
GI50 (A549 NSCLC): > 25 µM
TGI (A549 NSCLC): > 25 µM
GI50 (HL-60(TB) leukemia): 8.14 µM
TGI (HL-60(TB) leukemia): > 25 µM
GI50 (LOX IMVI melanoma): > 25 µM
TGI (LOX IMVI melanoma): > 25 µM
GI50 (OVCAR-5 ovarian): > 25 µM
TGI (OVCAR-5 ovarian): > 25 µM
